The source of these data is US8591935B2, “Methods and compositions for treating pain comprising a statin” (Warsaw Orthopedic, Inc., priority 2008, dated 2013).

Experiment [1] has as its system chronic constriction injury (CCI) rats. The experiment is described as follows: Mechanical allodynia: von Frey monofilament test in the chronic constriction injury model. Type of experiment: in vivo, Wister rats. The method, then: This model may mimic pain associated with sciatica in humans. Twenty-eight male Wister rats (Charles River Laboratories, Wilmington, Mass.) weighing 300±26 g the day of surgery (Day 1) were used in this study. All experiments were conducted in accordance with the International Association for the Study of Pain guidelines and approved by the Institutional Animal Care and Use Committee at SRI International, Inc (Menlo Park, Calif.). CCI was induced according to the method of Bennett and Xie. Briefly, each animal was anesthetized by intraperitoneal (IP) injection of sodium pentobarbital at a dose of 60 mg/kg. The animal's common sciatic nerve was exposed and freed from adherent tissue at mid-thigh by separating the biceps femoris muscles by blunt dissection. Four loose ligatures were placed 1 mm apart, using chromic gut suture (4-0 absorbable suture; Jorgensen Laboratories, Inc., Loveland, Colo.). Seven animals were randomly assigned to each treatment group. Mechanical allodynia was measured using von Frey monofilaments (Stoelting, Wood Dale, Ill.) with varying stiffness (2.0-15.0 g) on Days −1 (baseline), 8, and 15 as described previously. Animals were placed on a perforated metallic platform and allowed to habituate to their surroundings for a minimum of 15 minutes before testing. The 50% paw withdrawal threshold response was determined by a sequential increasing and/or decreasing of the stimulus strength (the “up-down method” of Dixon). Each filament was applied with enough pressure to cause a buckling effect. Absence of a paw lifting/withdrawal response after 5 seconds prompted the use of the filament of next higher weight. Paw withdrawal indicating a positive response prompted the use of a weaker filament. After the initial response (i.e., paw withdrawal), the testing continued for four additional measurements and was used to calculate the response threshold. Four consecutive positive responses received a score of 0.25 g, and five consecutive negative responses (i.e., no paw withdrawal) received a score of 15 g. The 50% paw withdrawal threshold was calculated using the formula: 10 (Xf+kd)/10,000, where Xf is the final von Frey filament used (log units), k is a value that analyzes the response pattern (taken from the table published by Chaplan et al.), and d is the mean difference between stimuli (log units). The mean and standard error of the mean (SEM) were determined for each treatment group.

For experiment [2] the test system is unchanged. The experiment is described as follows: Thermal hyperalgesia: paw withdrawal latency to thermal radiant heat (Hargreaves test) in the chronic constriction injury model. Type of experiment: in vivo, Wister rats. The procedure:
This model may mimic pain associated with sciatica in humans. Twenty-eight male Wister rats (Charles River Laboratories, Wilmington, Mass.) weighing 300±26 g the day of surgery (Day 1) were used in this study. All experiments were conducted in accordance with the International Association for the Study of Pain guidelines and approved by the Institutional Animal Care and Use Committee at SRI International, Inc (Menlo Park, Calif.). CCI was induced according to the method of Bennett and Xie. Briefly, each animal was anesthetized by intraperitoneal (IP) injection of sodium pentobarbital at a dose of 60 mg/kg. The animal's common sciatic nerve was exposed and freed from adherent tissue at mid-thigh by separating the biceps femoris muscles by blunt dissection. Four loose ligatures were placed 1 mm apart, using chromic gut suture (4-0 absorbable suture; Jorgensen Laboratories, Inc., Loveland, Colo.). Seven animals were randomly assigned to each treatment group. […] The radiant infrared heat source stimulus intensity was set to IR50 and the cut-off time was set at 15 seconds. Rats were placed on a glass platform and allowed to habituate to the testing chambers for a minimum of 15 minutes prior to each testing session. The thermal stimulus was applied to the plantar surface of the paw. Thermal thresholds were defined as the latency in seconds at the first pain behavior, which includes paw withdrawal, flinching, biting and/or licking of the stimulated paw. The readings for all animals were averaged and the mean and standard error of the mean (SEM) were determined for each treatment group.

[3] abbreviates: lovastatin 0.3 mg/kg/day IP for 15 days, CCI rats.
[4] abbreviates: lovastatin 3 mg/kg/day IP for 15 days, CCI rats.
Setting [5] is: sulindac 2 mg/kg/day IP for 15 days, CCI rats.

As to `CC[C@H](C)C(=O)O[C@H]1C[C@@H](C)C=C2C=C[C@H](C)[C@H](CC[C@@H]3C[C@@H](O)CC(=O)O3)[C@H]21` [lovastatin], in experiment [1] (lovastatin 40 ng/hr group), the “mechanical allodynia pain behavioral response compared with the 0.3 mg/kg/day group” value was “probably statistically equivalent”. Besides, the “pain reduction, von Frey paw withdrawal threshold (mechanical stimulation) vs PBS vehicle” value is on record as “effective at reducing pain” in experiment [1] (setting [3]); “effective at reducing pain” in experiment [1] (setting [4]); “particularly effective” in experiment [1] (lovastatin 3 mg/kg/day IP, at day 15). Moreover, the “mechanical allodynia pain behavioral response” value in experiment [1] (lovastatin 0.3 mg/kg/day, all time points) is on record as “able to reduce this pain behavioral response at all time points”. Further, the “mechanical allodynia pain response compared with 50:50 DMSO/PBS vehicle control” value in experiment [1] (lovastatin 0.4 mcg/hr) is given as “probably statistically equivalent to the vehicle control”. The “thermal hyperalgesia withdrawal score, course over the study” value in experiment [2] (high dose lovastatin pump group, 0.4 mcg/hr) was “steadily improved during the course of the study”. The “thermal hyperalgesia withdrawal score compared with other statin groups” value in experiment [2] (high dose lovastatin pump group, 0.4 mcg/hr, day 21) is “statistically equivalent to the other two statin groups”. Further, the “pain reduction, paw withdrawal latency to thermal radiant heat vs PBS vehicle” value is reported as “effective at reducing pain” in experiment [2] (setting [3]); “effective at reducing pain” in experiment [2] (setting [4]); “particularly effective” in experiment [2] (lovastatin 3 mg/kg/day IP, at day 14). Besides, the “thermal withdrawal time as % of per-operative baseline” value was 68% in experiment [2] (lovastatin 0.3 mg/kg/day IP, Day 7); 61% in experiment [2] (lovastatin 0.3 mg/kg/day IP, days 14 and 21). In addition, in experiment [2] (lovastatin 0.3 mg/kg/day IP, all days tested), the “thermal hyperalgesia pain behavioral response vs 50:50 DMSO/PBS vehicle” value was “reduced this pain behavioral response at all days tested”. The “thermal withdrawal scores as % of baseline” value in experiment [2] (low dose lovastatin group (100-fold decrease from 0.3 mg/kg/day), all testing days) is listed as ~60%.
Regarding `CC1=C(CC(=O)O)c2cc(F)ccc2/C1=C\c1ccc([S+](C)[O-])cc1` (stereo not shown) [sulindac], the “pain reduction, von Frey paw withdrawal threshold (mechanical stimulation) vs PBS vehicle” value in experiment [1] (setting [5]) is reported as “effective at reducing pain”; in experiment [1] (sulindac 2 mg/kg/day IP, at 8 and 15 days) it was “particularly effective”. Moreover, the “pain reduction, paw withdrawal latency to thermal radiant heat vs PBS vehicle” value in experiment [2] (setting [5]) is “effective at reducing pain”; in experiment [2] (sulindac 2 mg/kg/day IP, at 7 and 14 days), “particularly effective”.
